Results on four compounds are retold here after patent US20100323456A1 (priority 2006, published 2010).

Several values for one entry are separate records, joined by “and”; a condition that tells them apart may be missing. Equal entries are not always repeated. Entries after “also recorded” stand apart in the source; their conditions may differ. Where two headings read alike, the source gives them in different places. Non-standard residues stand in square brackets, D forms with d. Residues, ends and D or L forms follow the SMILES beside them.

The test system of one assay is ET receptors. The settings on record: co-administration with morphine; cited from earlier work.
Assay [1] deals with G-proteins coupled to opioid and ET receptors. Briefly: [35S]GTPγS binding assay (G-protein stimulation) in neuronal membranes of neonatal rat brain, placebo and morphine withdrawal groups. It counts as biochemical. The settings on record: for Effect on [35S]GTPγS binding: brain of neonatal rats; for Effect on GTP binding: morphine withdrawal group compared to placebo; for Maximal stimulation of [35S]GTPγS binding / EC50: neonatal rat brain; for Maximal stimulation of [35S]GTPγS binding: 0.98 to 1000 nM; for EC50: read-out: EC50 for stimulated [35S]GTPγS binding.

A further assay deals with central ET receptors. The settings on record: intracerebroventricular administration; cited from earlier work.

Regarding `CC(C)C[C@@H]1NC(=O)[C@@H](C(C)C)NC(=O)[C@@H]2CCCN2C(=O)[C@@H](CC(=O)O)NC(=O)[C@@H](Cc2c[nH]c3ccccc23)NC1=O` [BQ123] (cyclo(L[dW][dD]P[dV])), the “Effect on morphine-induced analgesia and hyperthermia” value in the assay on ET receptors was “potentiate morphine-induced analgesia and hyperthermia without affecting catalepsy”.

As to `Cc1noc(NS(=O)(=O)c2cccc3c(N(C)C)cccc23)c1C` [BMS182874], in assay [1], the “Effect on [35S]GTPγS binding” value is “concentration-dependent increase” and the “Effect on GTP binding” value is given as “significantly increased GTP binding”. Besides, in assay [1] (morphine withdrawal group), the “Maximal stimulation of [35S]GTPγS binding” value (shortened to “Maximal stimulation”) amounted to 86.07%; the EC50 (commonly the concentration that produces a half-maximal response) was 0.0312 µM and 0.0332 µM. Moreover, in assay [1] (placebo (normal) group), the “Effect on G-protein stimulation / GTP binding” value was “did not affect GTP binding; also recorded: did not stimulate G-proteins”. Also, in assay [1] (placebo group), the “Maximal stimulation” value was 6.71±1.51% and the EC50 was greater than 1 µM.

On to `CC[C@H](C)[C@H](NC(=O)[C@H](CC(=O)O)NC(=O)[C@H](CC(C)C)NC(=O)[C@H](Cc1c[nH]cn1)NC(=O)[C@@H]1CSSC[C@H](N)C(=O)N[C@@H](CO)C(=O)N[C@H]2CSSC[C@H](NC(=O)[C@H](CCC(=O)O)NC(=O)[C@H](CCCCN)NC(=O)[C@H](CC(=O)O)NC(=O)[C@H](CCSC)NC(=O)[C@H](CC(C)C)NC(=O)[C@H](CO)NC(=O)[C@H](CO)NC2=O)C(=O)N[C@@H](C(C)C)C(=O)N[C@@H](Cc2ccc(O)cc2)C(=O)N[C@@H](Cc2ccccc2)C(=O)N1)C(=O)N[C@H](C(=O)N[C@@H](Cc1c[nH]c2ccccc12)C(=O)O)[C@@H](C)CC` [ET-1], for which the “Effect on mean arterial blood pressure (BP)” value in the assay with central ET receptors is given as “transient rise followed by sustained fall”. In assay [1], the “Effect on [35S]GTPγS binding” value was “concentration-dependent increase” and the “Effect on GTP binding” value is “lower; also recorded: attenuated”. Moreover, in assay [1] (morphine withdrawal group), the “Maximal stimulation” value is given as 87.16±4.83% and the EC50 is 0.171 µM. Besides, in assay [1] (placebo group), the “Maximal stimulation” value is 74.88±1.50% and the EC50 was determined as 0.02066 ± 0.00012 µM.

Consider `CN1CC[C@]23c4c5ccc(O)c4O[C@H]2[C@@H](O)C=C[C@H]3[C@H]1C5` [Morphine], for which, in assay [1], the “Effect on [35S]GTPγS binding” value is “concentration-dependent increase”. Besides, the “Effect on GTP binding” value in assay [1] is “higher”. Also, the “Maximal stimulation” value in assay [1] (morphine withdrawal group) is 83.60% and 83.60±5.77%; in assay [1] (placebo group), 66.81% and 66.31±1.51%.
